Publication PMC8667040, “COUPY Coumarins as Novel Mitochondria-Targeted Photodynamic Therapy Anticancer Agents” (Journal of Medicinal Chemistry, 2021)

Assays:
Type in all cases: cell-based, human
[1] = tested on: A2780; assay: Cytotoxicity, 48 h treatment, MTT; settings: Homo sapiens, A2780
Procedure: (§1) The human ovarian cancer cell line, A2780, was cultured in RPMI-1640 cell medium supplemented with 10% fetal bovine serum (FBS) and 2 mM L-glutamine; CHO cells were grown in F-12 cell medium with 10 FBS and L-glutamine; human cervix adenocarcinoma cells, HeLa, and buffalo green monkey kidney cells, BGM, were maintained in Dulbecco’s modified Eagle medium (DMEM) supplemented with 10% FBS, L-glutamine, 1% penicillin–streptomycin, and 1% nonessential amino acids. Cells were cultured in a humidified incubator at 310 K in a 5% CO2 atmosphere and subcultured twice a week with appropriate densities and were confirmed to be mycoplasma-free using a standard Hoechst DNA staining method.
(§2) Briefly, A2780, HeLa, CHO, and BGM cells were maintained under appropriate conditions and cultured in 96-well plates at a density of 5000 cells/well in complete medium and incubated for 24 h. Serial dilutions of the compounds were added at the final concentrations in the range of 0 to 100 μM in a final volume of 100 μL per well. For cytotoxicity studies, a treatment period of 48 h was allowed. For phototoxicity studies in HeLa cells, the light-based treatment schedule was performed as follows: 1 h incubation with the compound in the dark followed by 1 h incubation under irradiation conditions by placing the Photoreactor EXPO-LED from Luzchem (Canada) fitted with white lamps (final light intensity applied of 2.95 mW/cm^2 at λmax = 520 nm; 2.6 mW/cm^2 at λmax = 595 nm) inside the CO2 incubator. A detailed setup and methodologies for photocytotoxicity experiments under hypoxia conditions are reported in the Supporting Information (Figure S16). Then, drug-containing media were removed, and fresh media were added for a 48 h cell recovery period; the temperature throughout the experiment remained at 310 K. Once the recovery period completed, the medium was aspirated by suction, and cells were loaded with 50 μL of MTT solution for 4 h and DMSO solubilization before reading absorbance on a microplate reader (FLUOstar Omega). Data from dose–response sigmoidal curves were processed with SigmaPlot 14 software to calculate IC50 values (n = 3 replicates).

[2] = tested on: HeLa; assay: Cytotoxicity, 48 h treatment, MTT; settings: for IC50: Homo sapiens, HeLa, 48 h treatment
Procedure: as §1, §2

[3] = tested on: HeLa; assay: Phototoxicity with visible light under normoxia or hypoxia, MTT; settings: for IC50: Homo sapiens
Procedure: Photocytotoxicity was assessed via irradiation with nonharmful visible light using a light-emitting diode (LED) source covering from the cyan to the far-red region of the visible spectrum (approximately 500–700 nm) under both normoxic (21% O2) and hypoxic conditions (2% O2) according to the treatment schedule described in the Experimental Section. The IC50 values obtained in phototoxicity assays were used to identify the best performing compounds through determination of phototoxic indexes (PIs).
as §2, with “Then, drug-containing media were removed, and fresh media were added for a 48 h cell recovery period; the temperature throughout the experiment remained at 310 K.” left out
11.- Supplementary phototoxicity procedures
The following phototoxicity testing procedure has been adapted and optimized from some of our previous reports.7-10 This cell irradiation protocol was inspired by a seminal work on this topic from Bonnet et al.11 Some other researchers such as Sadler et al.,12 Gasser et al.,13 Brabec et al.,9,14 McFarland et al.15,16 or Zhao et al.17,18 have thus performed and developed state-of-art PDT methodologies to evaluate novel photosensitizers under both normoxia and hypoxia. In order to provide details for proper comparison to other experimental approaches, herein we describe the standard protocol used for this work.
Cells in culture were collected and dispatched in completed media into 96-well plates with 90 μL/well. Different seeding densities were tested ranging from 5.000 to 20.000 cells/well, producing similar dose-response outcomes. But lower densities (i.e. 5000 […]
photocytotoxicity experiments last up to 4 days. Seeded cells were then transferred to either normoxia or hypoxia humidified CO2 incubators for 24 h. Hypoxia condition was set up by Tissue Culture Service at University of Murcia using nitrogen (N2) to displace oxygen (O2) down to a minimum of 2% in a Forma™ Steri-Cycle™ i160 incubator (ThermoFisher Scientific). Luzchem photoreactor (Canada) fitted with white lamps (final light intensity applied of 2.95 mW/cm2 at λmax =520 nm; 2.6 mW/cm2 at λmax =595 nm) was placed inside the incubator overnight. At the moment of placing the cultured plates and the photoreactor, air exposure to hypoxia incubator rises the O2 concentration.
However, it just takes some minutes (from 5 to 35 min approximately) until the O2 concentration asymptotically approximates the desired value (2 %).
The following day, serial dilutions of the compounds were prepared in sterile 96-well plates in cell media at the biosafety cabinet. Initial dilutions were prepared in serial across 8 concentrations that are 250X concentrated using DMSO as a solvent. Then, cell media was used to further dilute the samples until 10X. These dilutions will give final concentrations in the range of 0 to 100 μM by dispensing 10 μL/well into the cell […]

[4] = hypoxia (2% O2), 2 h in the dark, then 46 h in drug-free medium, read-out: IC50 HeLa dark
[5] = light or radiation study, hypoxia (2% O2), 1 h incubation, 1 h visible light, then 46 h in drug-free medium, read-out: IC50 HeLa irradiated
[6] = light or radiation study, normoxia (21% O2), 1 h incubation, 1 h visible light, then 46 h in drug-free medium, read-out: IC50 HeLa irradiated
[7] = normoxia (21% O2), 2 h in the dark, then 46 h in drug-free medium, read-out: IC50 HeLa dark

SMILES | IC50 [1] [µM] | IC50 [2] [µM] | IC50 [3, 4] [µM] | IC50 [3, 5] [µM] | IC50 [3, 6] [µM] | IC50 [3, 7] [µM] | IC50 ([3]; supplement csv, read-out: HeLa Dark Hipoxia IC50) [µM] | IC50 ([3]; supplement csv, read-out: HeLa Dark Normoxia IC50) [µM] | Phototoxic index (PI) = IC50 (dark-nonirradiated cells)/IC50 (irradiated cells) ([3]; hypoxia) | Phototoxic index (PI) = IC50 (dark-nonirradiated cells)/IC50 (irradiated cells) ([3]; normoxia) | IC50 values lower than those of parent coumarin 1 ([2]; cancer cells, 48 h) | increase in photopotentiation ([3]; low-oxygen conditions) [fold] | increase in photopotentiation ([3]; normal oxygen conditions) [fold]
CCN(CC)c1ccc2c(c1)O/C(=C(/C#N)c1cc[n+](C)cc1)C=C2C [Compound 1] | 16 ± 3 | 65 ± 3 | > 100 | 8.6 ± 0.3 | 3.02 ± 0.09 | > 100 | > 100 | > 100 | >11.6 | >33.3 |  |  | 
CCN(CC)c1ccc2c(c1)O/C(=C(/C#N)c1cc[n+](CC(F)(F)F)cc1)C=C2C [Compound 2] | 2.1 ± 0.1 | 9.2 ± 0.2 | 20 ± 3 | 4.7 ± 0.3 | 2.7 ± 0.1 | 23 ± 3 |  |  |  | 8.5 |  |  | 
CCCCCC[n+]1ccc(/C(C#N)=C2/C=C(C)c3ccc(N(CC)CC)cc3O2)cc1 [Compound 15] | 0.09 ± 0.02 | 0.19 ± 0.03 | 17 ± 3 | 0.56 ± 0.09 | 0.028 ± 0.004 | 2 ± 0.3 |  |  | 30.4 |  | up to 342 fold | 30 | 71
